# Data published in PubChem BioAssay (NCI).
#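 Growth conditions: 96-well plates. Treatment: test compound, 48 hours, 5 concentrations. Analysis: linear interpolation between bracketing concentrations; unreached endpoints set to highest concentration. The concentration for full growth arrest is given as TGI.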
# Experiments:
# Assay in all cases: inhibition of tumour cell growth, NCI panel, 48 h
# 786-0 renal = test system: 786-0 renal
# A498 renal = test system: A498 renal
# ACHN renal = test system: ACHN renal
# BT-549 breast = test system: BT-549 breast
# CAKI-1 renal = test system: CAKI-1 renal
# CCRF-CEM leukemia = test system: CCRF-CEM leukemia
# COLO 205 colon = test system: COLO 205 colon
# EKVX NSCLC = test system: EKVX NSCLC
# HCC-2998 colon = test system: HCC-2998 colon
# HCT-116 colon = test system: HCT-116 colon
# HCT-15 colon = test system: HCT-15 colon
# HL-60(TB) leukemia = test system: HL-60(TB) leukemia
# HOP-62 NSCLC = test system: HOP-62 NSCLC
# HOP-92 NSCLC = test system: HOP-92 NSCLC
# HS 578T breast = test system: HS 578T breast
# HT29 colon = test system: HT29 colon
# IGROV1 ovarian = test system: IGROV1 ovarian
# K-562 leukemia = test system: K-562 leukemia
# KM12 colon = test system: KM12 colon
# LOX IMVI melanoma = test system: LOX IMVI melanoma
# M14 melanoma = test system: M14 melanoma
# MCF7 breast = test system: MCF7 breast
# MDA-MB-231 breast = test system: MDA-MB-231 breast
# MDA-MB-435 = test system: MDA-MB-435
# MOLT-4 leukemia = test system: MOLT-4 leukemia
# NCI-H226 lung = test system: NCI-H226 lung
# NCI-H23 lung = test system: NCI-H23 lung
# NCI/ADR-RES ovarian = test system: NCI/ADR-RES ovarian
# OVCAR-4 ovarian = test system: OVCAR-4 ovarian
# OVCAR-8 ovarian = test system: OVCAR-8 ovarian
# PC-3 prostate = test system: PC-3 prostate
# RPMI-8226 leukemia = test system: RPMI-8226 leukemia
# RXF 393 renal = test system: RXF 393 renal
# SF-268 CNS = test system: SF-268 CNS
# SF-295 CNS = test system: SF-295 CNS
# SF-539 CNS = test system: SF-539 CNS
# SK-MEL-2 melanoma = test system: SK-MEL-2 melanoma
# SK-MEL-28 melanoma = test system: SK-MEL-28 melanoma
# SK-MEL-5 melanoma = test system: SK-MEL-5 melanoma
# SK-OV-3 ovarian = test system: SK-OV-3 ovarian
# SNB-19 CNS = test system: SNB-19 CNS
# SNB-75 CNS = test system: SNB-75 CNS
# SR leukemia = test system: SR leukemia
# SW-620 colon = test system: SW-620 colon
# TK-10 renal = test system: TK-10 renal
# U251 CNS = test system: U251 CNS
# UACC-257 melanoma = test system: UACC-257 melanoma
# UACC-62 melanoma = test system: UACC-62 melanoma
# UO-31 renal = test system: UO-31 renal
# OVCAR-3 ovarian = test system: OVCAR-3 ovarian
# OVCAR-5 ovarian = test system: OVCAR-5 ovarian
smiles,measurement,setting,value
COc1ccc(NC(=S)N/N=C/c2c(C)n(C)n(-c3ccccc3)c2=O)cc1,TGI,786-0 renal,60.4 µM
same,TGI,A498 renal,49.8 µM
same,TGI,ACHN renal,> 100 µM
same,TGI,BT-549 breast,> 100 µM
same,TGI,CAKI-1 renal,51.8 µM
same,TGI,CCRF-CEM leukemia,> 100 µM
same,TGI,COLO 205 colon,> 100 µM
same,TGI,EKVX NSCLC,> 100 µM
same,TGI,HCC-2998 colon,> 100 µM
same,TGI,HCT-116 colon,> 100 µM
same,TGI,HCT-15 colon,> 100 µM
same,TGI,HL-60(TB) leukemia,> 100 µM
same,TGI,HOP-62 NSCLC,41.7 µM
same,TGI,HOP-92 NSCLC,65.4 µM
same,TGI,HS 578T breast,70.3 µM
same,TGI,HT29 colon,> 100 µM
same,TGI,IGROV1 ovarian,> 100 µM
same,TGI,K-562 leukemia,> 100 µM
same,TGI,KM12 colon,> 100 µM
same,TGI,LOX IMVI melanoma,> 100 µM
same,TGI,M14 melanoma,> 100 µM
same,TGI,MCF7 breast,> 100 µM
same,TGI,MDA-MB-231 breast,62.6 µM
same,TGI,MDA-MB-435,> 100 µM
same,TGI,MOLT-4 leukemia,> 100 µM
same,TGI,NCI-H226 lung,> 100 µM
same,TGI,NCI-H23 lung,> 100 µM
same,TGI,NCI/ADR-RES ovarian,> 100 µM
same,TGI,OVCAR-4 ovarian,39.8 µM
same,TGI,OVCAR-8 ovarian,55.7 µM
same,TGI,PC-3 prostate,> 100 µM
same,TGI,RPMI-8226 leukemia,> 100 µM
same,TGI,RXF 393 renal,56.6 µM
same,TGI,SF-268 CNS,70.7 µM
same,TGI,SF-295 CNS,> 100 µM
same,TGI,SF-539 CNS,59.4 µM
same,TGI,SK-MEL-2 melanoma,> 100 µM
same,TGI,SK-MEL-28 melanoma,> 100 µM
same,TGI,SK-MEL-5 melanoma,> 100 µM
same,TGI,SK-OV-3 ovarian,82.6 µM
same,TGI,SNB-19 CNS,46.2 µM
same,TGI,SNB-75 CNS,84.3 µM
same,TGI,SR leukemia,> 100 µM
same,TGI,SW-620 colon,> 100 µM
same,TGI,TK-10 renal,> 100 µM
same,TGI,U251 CNS,51.7 µM
same,TGI,UACC-257 melanoma,> 100 µM
same,TGI,UACC-62 melanoma,> 100 µM
same,TGI,UO-31 renal,> 100 µM
O=C1C(=O)c2ccccc2C(O)=C1Cc1ccccc1,TGI,786-0 renal,> 100 µM
same,TGI,A498 renal,> 100 µM
same,TGI,BT-549 breast,> 100 µM
same,TGI,EKVX NSCLC,> 100 µM
same,TGI,HCC-2998 colon,> 100 µM
same,TGI,HCT-116 colon,> 100 µM
same,TGI,HCT-15 colon,> 100 µM
same,TGI,HS 578T breast,> 100 µM
same,TGI,HT29 colon,> 100 µM
same,TGI,M14 melanoma,> 100 µM
same,TGI,MDA-MB-231 breast,> 100 µM
same,TGI,NCI-H23 lung,> 100 µM
same,TGI,NCI/ADR-RES ovarian,> 100 µM
same,TGI,OVCAR-3 ovarian,79.7 µM
same,TGI,OVCAR-4 ovarian,> 100 µM
same,TGI,OVCAR-5 ovarian,> 100 µM
same,TGI,PC-3 prostate,> 100 µM
same,TGI,SF-295 CNS,> 100 µM
same,TGI,SK-MEL-2 melanoma,> 100 µM
same,TGI,SK-MEL-28 melanoma,> 100 µM
same,TGI,SK-MEL-5 melanoma,39 µM
same,TGI,SK-OV-3 ovarian,> 100 µM
same,TGI,TK-10 renal,> 100 µM
same,TGI,UACC-257 melanoma,> 100 µM
same,TGI,UO-31 renal,> 100 µM
